A short description of data set [1]: Binding affinity against nitrocefin.
The nature of data set [2]: pKa in water at 30 degree C. The format is physicochemical.

This note sets out measurements from ChEMBL document CHEMBL1147497, “The inhibition of metallo-beta-lactamase by thioxo-cephalosporin derivatives” (Bioorg Med Chem Lett, 2004).

For orientation: Ki means a measure of affinity in units of concentration, obtained from inhibition or displacement. By pKa is commonly meant the pH at which an ionisable group is half protonated.

As to `CC1=C(C(=O)O)N2C(=S)[C@@H](NC(=O)Cc3ccccc3)[C@H]2SC1`, the Ki in data set [1] came out at 720 µM.
In data set [2], `CC1=C(C(=O)O)N[C@@H](C2NC(=O)C(c3ccccc3)N=C2S)SC1` (some centres not stated) had a pKa of 10.1.
